Data from patent publication US8940760B2, “Pyrazolo pyridine derivatives as NADPH oxidase inhibitors” (Genkyotex SA, priority 2008, dated 2015).

Key:
NOX activities [1] = assay: H2DCF-DA fluorescence in TGF-β stimulated HUVEC; format: cell-based, human; details: HUVEC stimulated with TGF-β, 'usually'
Protocol: HUVEC are cultured in endothelial basal medium supplemented with hydrocortisone (1 μg/mL, CalbioChem), bovine brain extract (12 μg/mL), gentamicin (50 μg/mL, CalbioChem), amphotericin B (50 ng/mL, CalBioChem EGF (10 ng/mL, and 10% FCS until the fourth passage. When the fifth passage was started, cells were cultured with a lower concentration of FCS (2%) in the absence of EGF, if not indicated otherwise. All experiments were done with cells of the fifth passage. The cells were incubated with OxLDL (oxidized low-density lipoprotein) or its buffer as control for 24 h, before detection of O2^− formation.
HUVEC were plated on coverslips and made quiescent overnight in 0.5% BSA before stimulation with TGF-β. Cells were loaded for 10 minutes with 5 μM CM-H2DCFDA in phenol-red-free medium in the dark and then treated with TGF-β (R&D Systems) in the presence or absence of compounds according to the invention. Cells were then visualized by immunofluorescence microscopy after fixation and staining of the nuclei with DAPI or examined live using confocal microscopy. DCF fluorescence was visualized at an excitation wavelength of 488 nm and emission at 515 to 540 nm. […] For calculation, the absorbance at […] was normalized to absorbance at […] for each individual well. […] NOX activities were expressed as % of the activity in control cells. […]

NOX activity = assay: Amplex Red measurement of extracellular hydrogen peroxide (NOX activity) in DMSO-differentiated HL60 cells; format: cell-based, human; details: DPI at final concentration of 10 μM, 'usually'
Protocol: Human acute myeloid leukemia cell line HL-60 was cultured in RPMI 1640 (Invitrogen) supplemented with 10% heat-inactivated calf serum, 2 mM glutamine, 100 U/mL penicillin (Sigma), and 100 μg streptomycin (Sigma) at 37° C. under a humidified atmosphere of 5% CO2. HL60 differentiation to the neutrophil phenotype was triggered by adding Me2SO (final concentration 1.25% v/v for 6 days) to the culture medium.
Extracellular hydrogen peroxide was measured using Amplex UltraRed (Molecular Probes). Cells were trypsinized (1× Trypsin-EDTA), collected by centrifugation, and resuspended in HBSS supplemented with 1% glucose. Cells were seeded into black 96-well plates at a density of 50,000 cells in 200 μl testing buffer (HBSS 1% glucose containing 0.005 U/mL horseradish peroxidase (Roche) and 50 μM Amplex Red in the presence or absence of compounds according to the invention. As a control, DPI was included at a final concentration of 10 μM. The plates were placed in the fluorescent Optima Fluorescent plate reader and kept at 37° C. during 20 min. Fluorescence was measured for 15 min with excitation and emission wavelengths of 544 nm and 590 nm respectively. NOX activities were expressed as % of the activity in control cells. Residual activity of DPI-treated cells was usually <10%.

NOX activities [2] = assay: Nitroblue tetrazolium (NBT) test of intracellular and extracellular superoxide in cells; format: cell-based; details: DPI at final concentration of 10 μM, 'usually'
Protocol: Intracellular and extracellular superoxide was measured by a colorimetric technique using a quantitative nitroblue tetrazolium (NBT) test. SOD-inhibitable conversion of NBT to formazan, a fine blue precipitate, in the presence of superoxide anion was measured using Fluostar Optima spectrometer (BMG labtech). Following incubation with appropriate stimuli, cells were trypsinized (1× Trypsin-EDTA), collected by centrifugation, and washed with PBS to remove medium. 5×10^5 cells were plated on 48-well plates and incubated in Hank's balanced salt solution containing 0.5 mg/mL NBT with or without 800 U/mL SOD in the presence or absence of compounds according to the invention. As a control, DPI was included at a final concentration of 10 μM. After 2.5 h, cells were fixed and washed with methanol to remove non reduced NBT. The reduced formazan was then dissolved in 230 μl of 2M potassium hydroxide and in 280 μl of dimethylsulfoxide. The absorption was measured at 630 nm. For calculation, the absorbance at 630 nm was normalized for each individual well. The mean of the four blank values was substracted from each corrected value for each time point. NOX activities were expressed as % of the activity in control cells. Residual activity of DPI-treated cells was usually <10%.

NOX activities [3] = assay: Chemiluminescence (luminol) measurement of ROS in cells; format: cell-based; details: 'usually'
Protocol: ROS was measured using the chemiluminescent probe luminol. Cells were cultured and plated as for Amplex Red except that the Amplex Red agent was replaced by 10 μg/mL luminol (Sigma 09235). Light emission was recorded continuously at 37° C. for 60 minutes using the luminescence function of the FluoStar Optima fluorescent plate reader. The mean of the four blank values was substracted from each corrected value for each time point. NOX activities were expressed as % of the activity in control cells. Residual activity of DPI-treated cells was usually <10%.

Measured: Residual activity of DPI-treated cells (NOX activity as % of control cells)

c1ccc([I+]c2ccccc2)cc1 [DPI, Diphenyl-iodonium]
< 10%: all assays above
